Results published in publication PMC4402242 (Chemico-biological interactions, 2014).
Values joined by “and” are separate entries in the source; they are usually repeats but may differ in a detail not shown here. Identical values can stand only once. Like-named read-outs stand apart in the source and are kept apart here. Marks after values point to notes of the source that are not given here.

Tests used:
[1] = tested on: isolated renal cortical cells (IRCC); assay: LDH release from isolated renal cortical cells; details: for LDH (% Release) 4-A2CP / direct nephrotoxic potential of the aminophenols in decreasing order / Cytotoxicity (LDH release) in words: IRCC; for LDH (% Release) 4-A2CP / direct nephrotoxic potential of the aminophenols in decreasing order / LDH (% Release) Pretreatment: 1 h; for LDH (% Release) 4-A2CP: % of total LDH; for LDH (% Release) 4-A2CP / LDH (% Release) Pretreatment: mean ± S.E.; for direct nephrotoxic potential of the aminophenols in decreasing order: 0.5 and 1.0 mM; for Cytotoxicity (LDH release) in words: aminophenol 0.5 mM, 1 h (Fig. 2); for LDH (% Release) Pretreatment: pretreatment compound alone, plus 4-A2CP vehicle; for Effect of pretreatment on 4-A2CP cytotoxicity: pretreatment concentration and time per Table 1
[2] = tested on: isolated renal cortical cells (IRCC)
peroxidase = details: cited from earlier work
[3] = tested on: Sprague-Dawley rat hepatocytes; details: cited from earlier work
[4] = tested on: rat renal proximal tubules; details: rat renal proximal tubules with hepatic subcellular fractions; cited from earlier work
[5] = tested on: Fischer 344 rat renal cortical slices; details: cited from earlier work
LLC-PK1 cells = details: cited from earlier work

## Nc1ccc(O)c(Cl)c1 [4-A2CP, 4-amino-2-chlorophenol]
[1]; 4-A2CP 0.5 mM alone
  LDH (% Release) 4-A2CP: 33.0 ± 2.7 ^b % and 52.0 ± 2.5 ^b % and 39.5 ± 0.6 ^b % and 43.0 ± 1.4 ^b % and 38.3 ± 4.9 ^b % and 43.5 ± 3.2 ^b %
[1]; 4-A2CP 1.0 mM alone
  LDH (% Release) 4-A2CP: 42.6 ± 0.6 ^b % and 54.4 ± 2.3 ^b % and 51.3 ± 3.2 ^b % and 51.4 ± 4.9 ^b % and 53.9 ± 6.5 ^b % and 49.9 ± 4.3 ^b %
[1]
  direct nephrotoxic potential of the aminophenols in decreasing order: 4-A2,6DCP > 4-A2CP > 4-AP > 4-A3CP
  Cytotoxicity (LDH release) in words: marked cytotoxicity was observed

## CC(=O)N1CCN(c2ccc(OCC3COC(Cn4ccnc4)(c4ccc(Cl)cc4Cl)O3)cc2)CC1 (stereo not shown) [Ketoconazole]
[1]; 0.1 mM
  LDH (% Release) Pretreatment: 22.4 ± 0.9% and 26.1 ± 1.7%

## Cn1cc[nH]c1=S [Methimazole]
[1]; 1.0 mM
  LDH (% Release) Pretreatment: 22.0 ± 0.5% and 19.7 ± 2.2%

## N[C@@H](CCC(=O)N[C@@H](CS)C(=O)NCC(=O)O)C(=O)O [Glutathione]
[1]; 4-A2CP 1.0 mM
  Effect of pretreatment on 4-A2CP cytotoxicity: completely attenuated

## O=C(O)CC(S)C(=O)O (stereo not shown) [Mercaptosuccinate, mercaptosuccinic acid]
[2]
  Effect of pretreatment on 4-A2CP cytotoxicity: attenuated

## NNC(=O)c1ccncc1 [Isoniazid]
[1]; 4-A2CP 0.5 and 1.0 mM
  Effect of pretreatment on 4-A2CP cytotoxicity: No alteration
[1]; 1.0 mM
  LDH (% Release) Pretreatment: 18.6 ± 0.7% and 20.7 ± 0.9%

## CC(C)(C(=O)c1cccnc1)c1cccnc1 [Metyrapone]
peroxidase
  peroxidase inhibitor properties: but not metyrapone
[1]; 4-A2CP 0.5 mM
  Effect of pretreatment on 4-A2CP cytotoxicity: potentiated
[1]; 4-A2CP 1.0 mM
  Effect of pretreatment on 4-A2CP cytotoxicity: no potentiation or attenuation
[1]; 1.0 mM
  LDH (% Release) Pretreatment: 21.3 ± 0.6% and 20.6 ± 0.9%

## Nn1nnc2ccccc21 [1-aminobenzotriazole]
[3]
  Effect on 4-AP metabolism: did not alter
[4]
  Effect on 4-AP nephrotoxicity: did not alter

## Nc1cc(Cl)c(O)c(Cl)c1 [4-A2,6DCP, 4-amino-2,6-dichlorophenol]
[1]
  direct nephrotoxic potential of the aminophenols in decreasing order: 4-A2,6DCP > 4-A2CP > 4-AP > 4-A3CP
  Cytotoxicity (LDH release) in words: marked cytotoxicity was observed

## CC(=O)N[C@@H](CS)C(=O)O [N-Acetyl-L-cysteine]
[1]; 4-A2CP 1.0 mM
  Effect of pretreatment on 4-A2CP cytotoxicity: partially attenuated

## c1ccc(Nc2ccc(Nc3ccccc3)cc2)cc1 [DPPD, N,N’-diphenyl-p-phenylenediamine]
[5]
  Effect on 4-A2,6-DCP cytotoxicity: unable to attenuate
[2]
  Effect of pretreatment on 4-A2CP cytotoxicity: did not reduce

## Cc1c(C)c2c(c(C)c1O)CC[C@@](C)(CCC[C@H](C)CCC[C@H](C)CCCC(C)C)O2 [α-Tocopherol]
[5]
  Effect on 4-A2,6-DCP cytotoxicity: unable to attenuate

## CCCCCCCCN [N-Octylamine]
[1]; 4-A2CP 0.5 and 1.0 mM
  Effect of pretreatment on 4-A2CP cytotoxicity: No alteration
[1]; 0.2 mM
  LDH (% Release) Pretreatment: 27.5 ± 1.1% and 20.0 ± 0.9%

## Cc1cc(C(C)(C)C)c(O)c(C(C)(C)C)c1 [BHT, butylated hydroxytoluene]
LLC-PK1 cells
  Effect on 4-AP cytotoxicity: did not prevent

## CCCCOCCOCCOCc1cc2c(cc1CCC)OCO2 [Piperonyl butoxide]
peroxidase
  peroxidase inhibitor properties: has peroxidase inhibitor properties
[1]; 4-A2CP 0.5 and 1.0 mM
  Effect of pretreatment on 4-A2CP cytotoxicity: attenuated
[1]; 1.0 mM
  LDH (% Release) Pretreatment: 19.1 ± 2.5% and 25.0 ± 1.0%

## Nc1ccc(O)cc1Cl [4-A3CP, 4-amino-3-chlorophenol]
[1]
  direct nephrotoxic potential of the aminophenols in decreasing order: 4-A2,6DCP > 4-A2CP > 4-AP > 4-A3CP
  Cytotoxicity (LDH release) in words: Cytotoxicity was not observed

## O=C1O[C@H]([C@@H](O)CO)C(O)=C1O [Ascorbate]
[1]; 4-A2CP 0.5 and 1.0 mM
  Effect of pretreatment on 4-A2CP cytotoxicity: attenuated
